Results: US9757356B2 (CHONNAM NATIONAL UNIVERSITY HOSPITAL, priority 2015, dated 2017)

Tests used:
MI animal model [1] = assay: Echocardiography of cardiac function in MI animal model; type: in vivo, rat; conditions: MI rats, 0.2 mg/body weight intra-abdominally daily
Description: (§1) To induce the onset of myocardial infarction, first of all, rats weighing 200 to 230 g were anesthetized with ketamine (50 mg/kg) and xylazine (5 mg/kg), and the chests of the rats were shaved and disinfected. An anesthesia ventilator was installed to manage the airway of the rat, and the chest was incised to expose the heart. Then, a cardiac muscle was sutured in a region of the left anterior descending artery (LAD) to block a blood flow, thereby establishing an MI animal model.
(§2) After two weeks, the rats were anesthetized, and subjected to echocardiography to examine the cardiac functions.
In this case, the indices have the following meanings. • IVSd; thickness of interventricular septum (diastole) • IVSs; thickness of interventricular septum (systole) • LVIDd; thickness of left ventricular internal dimension (diastole) • LVIDs; thickness of left ventricular internal dimension (systole) • LVPWd; left ventricle posterior wall thickness (diastole) • LVPWs; left ventricle posterior wall thickness (systole) • EF; ejection fraction • FS; fractional shortening

cardiomyocytes (CMs) = assay: BrdU cell proliferation assay, cardiomyocytes in cardiomyocyte/cardiac fibroblast co-culture; type: cell-based, rat; conditions: BIO 2.5 μM and 5 μM, after 2 days and 5 days, FIG. 1
Description: (§3) Hearts of two-day-old rats were removed and washed with physiological saline. Thereafter, left cardiac muscles were separated from the hearts in a sterilization cabinet, and microtomed into segments. These myocardial tissues were added to a collagenase enzyme solution, reacted at 37° C. while stirring, and then centrifuged to collect only the supernatant which were then kept in a cell culture flask. After an hour, cardiomyocytes which floated when the supernatant was transferred to a new culture flask were separated from cardiac fibroblasts attached to the bottom of the cell culture flask. At this point, both the cardiomyocytes and the cardiac fibroblasts were cultured in a Dulbecco's modified Eagle's medium (DMEM) supplemented with 10% fetal bovine serum (FBS) and then used for experiments.
(§4) After 2 days and 5 days, the proliferation of cells was quantified.
(§5) To determine the level of new DNA synthesis, a cell proliferation assay was performed by adding bromodeoxyuridine (BrdU) to a cell culture broth in advance to incorporate BrdU into DNAs of cells and performing a chromogenic reaction using an anti-BrdU antibody.

[2] = test system: cardiac fibroblasts (cFBs); assay: BrdU cell proliferation assay, cardiac fibroblasts in cardiomyocyte/cardiac fibroblast co-culture; type: cell-based, rat
Description: as §3, §4, §5
Then, cells which were not stained with cardiac troponin I but stained with DAPI were regarded as cardiac fibroblasts and then counted.

MI animal model [3] = assay: Macrophage phenotype (CD68/Arg1 immunofluorescence) in cardiac muscle of MI animal model; type: in vivo, rat; conditions: MI rats, 2nd week after onset of myocardial infarction, FIG. 6
Description: Specifically, a slide for myocardial infarction heart tissues was treated with an anti-CD68 antibody and an anti-Arg1 antibody, and a fluorescence image was visualized using a secondary antibody. Then, the tissues were observed under a confocal microscope with a magnification of 800 times. Since the macrophages in the tissues expressed CD68, the macrophages were detected using the anti-CD68 antibody. Also, since a marker used to distinguish the characteristics of the macrophages in the tissues was iNOS in the case of the inflammatory M1 macrophages and arginase 1 (Arg1) in the case of the anti-inflammatory M2 macrophages, the macrophages were stained with an anti-inflammatory marker Arg1 for macrophages in order to determine how many the phenotype of the macrophages in the heart was converted into the M2 type at the 2nd week after the onset of myocardial infarction.

[4] = test system: macrophage cell line RAW264.7; assay: iNOS expression in LPS-stimulated macrophages, Western blotting; type: cell-based, mouse; conditions: RAW264.7, LPS 100 ng/mL, BIO 0, 1, 2.5 and 5 μM, FIG. 5
Description: A mouse macrophage cell line RAW264.7 (Korean Cell Line Bank) was cultured in a DMEM broth supplemented with 10% fetal bovine serum, and lipopolysaccharide (LPS) was added at a concentration of 100 ng/mL to the culture broth to initiate inflammation of macrophages.

MI animal model [5] = assay: Myocardial fibrosis by Masson's trichrom staining in MI animal model; type: in vivo, rat; conditions: MI rats, MI+BIO vs MI+vehicle, FIG. 4
Description: as §1, §2
To quantify myocardial fibrosis, the heart tissues were also removed, fixed with formalin, embedded in a paraffin block, and then microtomed into sections having a thickness of 10 μm. Thereafter, the sections were histologically stained using a Masson's trichrom method.

GSK3β = target: T1, GSK3β (Rattus norvegicus, UniProt P18266); assay: p-GSK3β expression in cardiac fibroblasts, Western blotting; type: cell-based; conditions: cardiac fibroblasts, 0, 0.25, 2.5 and 5 μM for 2 days, FIG. 7
T1 construct: endogenous in cells; host or cells: cardiac fibroblasts (primary culture)
Description: Since GSK3β was in an inert state when phosphorylated, an increase in expression level of p-GSK3β was determined using Western blotting in order to evaluate the inhibition of GSK3β.

[6] = echocardiography after two weeks

T1 sequence (P18266 whole entry): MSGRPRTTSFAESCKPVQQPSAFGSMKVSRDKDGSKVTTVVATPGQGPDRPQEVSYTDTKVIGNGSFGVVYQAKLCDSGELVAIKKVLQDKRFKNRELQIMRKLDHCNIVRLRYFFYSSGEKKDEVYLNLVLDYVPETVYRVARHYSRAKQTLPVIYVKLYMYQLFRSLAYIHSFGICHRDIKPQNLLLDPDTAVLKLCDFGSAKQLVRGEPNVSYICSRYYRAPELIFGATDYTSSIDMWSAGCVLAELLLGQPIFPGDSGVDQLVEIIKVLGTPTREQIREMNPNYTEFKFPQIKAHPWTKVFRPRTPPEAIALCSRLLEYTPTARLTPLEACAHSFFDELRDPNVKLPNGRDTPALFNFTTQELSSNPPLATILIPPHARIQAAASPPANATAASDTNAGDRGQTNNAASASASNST

Structure (SMILES) | diastolic and systolic functions of the heart (MI animal model [1]; after two weeks, vs MI+saline) | EDV (MI animal model [1]; [6]) | EF; ejection fraction (MI animal model [1]; [6]) | ESV (MI animal model [1]; [6]) | FS; fractional shortening (MI animal model [1]; [6]) | IVSd; thickness of interventricular septum (diastole) (MI animal model [1]; [6]) | IVSs; thickness of interventricular septum (systole) (MI animal model [1]; [6]) | LVIDd; thickness of left ventricular internal dimension (diastole) (MI animal model [1]; [6]) | LVIDs; thickness of left ventricular internal dimension (systole) (MI animal model [1]; [6]) | LVPWd; left ventricle posterior wall thickness (diastole) (MI animal model [1]; [6]) | LVPWs; left ventricle posterior wall thickness (systole) (MI animal model [1]; [6]) | SV (MI animal model [1]; [6]) | BrdU (+) CM/total CM, proliferation rate of dividing cardiomyocytes (cardiomyocytes (CMs)) | BrdU (+) cFB/total cFB, proliferation rate of dividing cardiac fibroblasts ([2]; co-culture, BIO 2.5 μM and 5 μM, FIG. 2) | Arg1-expressing (anti-inflammatory M2 type) macrophages in the cardiac muscles (MI animal model [3]) | expression of iNOS (inflammatory marker) [4] | fibrosis regions (blue), myocardial fibrosis (MI animal model [5]) | expression level of p-GSK3β (inert form), GSK3β inhibition (GSK3β) | inhibitory effect on the proliferation of the cardiac fibroblasts ([2]; BIO 5 μM and 10 μM vs LiCl, same manner as Example 3, FIG. 8)
O=C1Nc2cc(Br)ccc2/C1=C1/Nc2ccccc2/C1=N\O [BIO, (2′Z,3′E)-6-bromoindirubin-3′-oxime] | well preserved | 1.563 ± 0.308 | 41.313 ± 6.823 | 0.911 ± 0.251 | 18.262 ± 3.525 | 0.079 ± 0.013 | 0.084 ± 0.028 | 0.900 ± 0.066 | 0.736 ± 0.074 | 0.089 ± 0.023 | 0.115 ± 0.019 | 0.651 ± 0.116 | significantly increased | significantly decreased | prevailed | lowered in a concentration-dependent manner | significantly reduced |  | 
[Cl-].[Li+] [LiCl, reference compound] |  |  |  |  |  |  |  |  |  |  |  |  |  |  |  |  |  | increased | not observed
